Key:
Format in all cases: biochemical
SIK1 = SIK1 (Homo sapiens, UniProt P57059); assay: Enzymatic activity assay SIK1, RapidFire mass spectrometry (phosphorylation of CHK-peptide); details: RapidFire MS, inhibition of SIK1; read-out: SIK1 RF IC50
In short: (§1)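 Compounds (12-point, 3-fold, generally 30 μM to 170 pM) were pre-incubated 30 min at ambient temperature with SIK1 (5 nM), SIK2 (0.5 nM) or SIK3 (1.5 nM) in HEPES pH 7.0/magnesium acetate buffer. CHK-peptide (10 μM solution) and ATP (100 μM solution) were then added for 45 min before formic acid quench.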

SIK2 = SIK2 (Homo sapiens, UniProt Q9H0K1); assay: Enzymatic activity assay SIK2, RapidFire mass spectrometry (phosphorylation of CHK-peptide); details: RapidFire MS, inhibition of SIK2; read-out: SIK2 RF IC50
In short: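 SIK2 (0.5 nM) in pH 7.0 HEPES buffer with 10 mM Mg acetate phosphorylates CHK-peptide (10 μM solution) with 100 μM ATP solution, 45 min ambient, then formic acid quench.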

SIK3 = SIK3 (Homo sapiens, UniProt Q9Y2K2); assay: Enzymatic activity assay SIK3, RapidFire mass spectrometry (phosphorylation of CHK-peptide); details: RapidFire MS, inhibition of SIK3; read-out: SIK3 RF IC50
In short: as §1

SIK2, sequence (Q9H0K1 whole entry): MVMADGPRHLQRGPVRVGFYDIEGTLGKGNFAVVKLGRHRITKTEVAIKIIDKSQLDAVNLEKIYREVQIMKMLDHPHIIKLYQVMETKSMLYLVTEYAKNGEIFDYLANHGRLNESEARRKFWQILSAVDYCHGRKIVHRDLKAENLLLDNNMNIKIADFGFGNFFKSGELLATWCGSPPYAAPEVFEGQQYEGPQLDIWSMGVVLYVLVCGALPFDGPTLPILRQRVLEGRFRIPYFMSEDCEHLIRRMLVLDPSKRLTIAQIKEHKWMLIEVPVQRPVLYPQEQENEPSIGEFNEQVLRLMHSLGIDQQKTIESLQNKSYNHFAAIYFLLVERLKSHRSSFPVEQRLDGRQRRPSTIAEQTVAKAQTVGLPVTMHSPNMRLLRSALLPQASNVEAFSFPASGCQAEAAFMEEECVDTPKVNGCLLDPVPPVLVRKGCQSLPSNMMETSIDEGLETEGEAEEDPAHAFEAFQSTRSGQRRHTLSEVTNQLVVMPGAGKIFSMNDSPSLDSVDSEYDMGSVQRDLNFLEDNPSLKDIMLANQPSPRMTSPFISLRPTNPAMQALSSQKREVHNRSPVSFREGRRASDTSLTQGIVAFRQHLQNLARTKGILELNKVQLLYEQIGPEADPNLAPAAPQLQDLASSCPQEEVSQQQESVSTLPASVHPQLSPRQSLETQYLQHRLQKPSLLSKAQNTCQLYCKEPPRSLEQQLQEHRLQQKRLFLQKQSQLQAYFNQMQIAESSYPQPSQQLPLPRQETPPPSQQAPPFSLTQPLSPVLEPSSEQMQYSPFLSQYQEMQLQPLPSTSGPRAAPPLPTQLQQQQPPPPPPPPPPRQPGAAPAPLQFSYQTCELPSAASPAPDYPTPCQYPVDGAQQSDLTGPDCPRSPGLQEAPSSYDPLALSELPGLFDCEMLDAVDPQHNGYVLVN
SIK1, sequence (P57059 whole entry): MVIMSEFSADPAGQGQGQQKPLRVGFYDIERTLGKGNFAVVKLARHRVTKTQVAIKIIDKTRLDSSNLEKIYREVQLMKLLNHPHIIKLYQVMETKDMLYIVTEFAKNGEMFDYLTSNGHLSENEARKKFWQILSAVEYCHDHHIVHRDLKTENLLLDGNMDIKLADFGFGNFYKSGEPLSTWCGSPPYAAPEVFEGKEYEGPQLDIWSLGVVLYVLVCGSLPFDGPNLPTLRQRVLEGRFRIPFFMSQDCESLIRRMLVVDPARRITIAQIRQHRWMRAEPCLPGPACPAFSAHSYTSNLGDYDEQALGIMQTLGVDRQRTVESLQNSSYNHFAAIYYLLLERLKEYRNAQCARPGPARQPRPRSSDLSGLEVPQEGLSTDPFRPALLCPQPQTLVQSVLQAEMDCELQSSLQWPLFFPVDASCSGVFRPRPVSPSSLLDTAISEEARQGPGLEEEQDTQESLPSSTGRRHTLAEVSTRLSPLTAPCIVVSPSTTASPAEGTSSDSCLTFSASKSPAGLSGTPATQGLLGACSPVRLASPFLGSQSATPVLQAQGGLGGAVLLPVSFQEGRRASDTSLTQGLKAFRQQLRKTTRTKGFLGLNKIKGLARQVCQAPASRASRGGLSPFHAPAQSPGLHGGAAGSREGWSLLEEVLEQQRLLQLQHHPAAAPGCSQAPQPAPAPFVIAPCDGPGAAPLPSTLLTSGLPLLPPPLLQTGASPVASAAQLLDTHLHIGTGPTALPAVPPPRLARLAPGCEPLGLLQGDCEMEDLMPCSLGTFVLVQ
SIK3, sequence (Q9Y2K2 whole entry): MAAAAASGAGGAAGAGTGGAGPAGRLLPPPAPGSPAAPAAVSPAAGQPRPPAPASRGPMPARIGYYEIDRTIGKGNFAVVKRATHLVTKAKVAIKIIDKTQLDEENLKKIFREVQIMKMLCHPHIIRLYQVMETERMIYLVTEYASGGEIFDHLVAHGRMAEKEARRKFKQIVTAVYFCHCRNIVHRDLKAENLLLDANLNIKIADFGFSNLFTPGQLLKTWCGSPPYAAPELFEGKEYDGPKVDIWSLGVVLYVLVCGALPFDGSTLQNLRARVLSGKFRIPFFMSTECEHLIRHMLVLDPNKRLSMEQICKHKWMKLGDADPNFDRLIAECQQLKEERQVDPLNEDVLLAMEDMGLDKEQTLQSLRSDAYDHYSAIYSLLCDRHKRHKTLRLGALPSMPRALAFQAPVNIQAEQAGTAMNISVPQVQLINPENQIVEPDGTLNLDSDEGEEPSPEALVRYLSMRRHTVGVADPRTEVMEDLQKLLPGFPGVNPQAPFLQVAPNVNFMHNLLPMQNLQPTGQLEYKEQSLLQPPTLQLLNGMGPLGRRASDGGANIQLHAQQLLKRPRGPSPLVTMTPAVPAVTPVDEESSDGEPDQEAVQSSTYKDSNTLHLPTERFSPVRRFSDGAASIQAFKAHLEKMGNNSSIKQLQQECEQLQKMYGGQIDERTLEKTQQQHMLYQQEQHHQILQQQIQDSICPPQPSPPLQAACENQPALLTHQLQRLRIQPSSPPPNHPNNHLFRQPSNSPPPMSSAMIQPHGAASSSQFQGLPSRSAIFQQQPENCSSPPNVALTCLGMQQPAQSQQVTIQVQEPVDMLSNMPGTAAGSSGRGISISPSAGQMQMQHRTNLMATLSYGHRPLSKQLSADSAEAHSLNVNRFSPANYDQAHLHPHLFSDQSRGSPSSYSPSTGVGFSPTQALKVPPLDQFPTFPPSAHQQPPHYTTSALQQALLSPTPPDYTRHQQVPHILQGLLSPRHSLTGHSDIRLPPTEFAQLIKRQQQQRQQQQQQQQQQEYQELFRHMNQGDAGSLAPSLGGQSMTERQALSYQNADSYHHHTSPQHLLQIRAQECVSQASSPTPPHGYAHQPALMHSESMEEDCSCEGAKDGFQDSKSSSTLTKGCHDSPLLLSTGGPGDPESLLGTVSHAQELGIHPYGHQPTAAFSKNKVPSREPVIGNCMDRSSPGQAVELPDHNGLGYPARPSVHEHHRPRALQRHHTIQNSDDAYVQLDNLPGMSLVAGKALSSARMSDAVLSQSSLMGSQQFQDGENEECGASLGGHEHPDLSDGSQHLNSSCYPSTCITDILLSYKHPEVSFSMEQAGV

IC50 (SIK1) [nM] | IC50 (SIK2) [nM] | IC50 (SIK3) [nM] | SMILES
47 | 13.4 | 144 | Cc1ccc(Nc2cc3c(cc2CC2COC2)ncn3-c2ccc(C(C)O)c(-n3nc(OC(F)F)cc3C)n2)nn1 (stereo not drawn) [Example 406, 1-[2-[3-(difluoromethoxy)-5-methyl-pyrazol-1-yl]-6-[6-[(6-methylpyridazin-3-yl)amino]-5-(oxetan-3-ylmethyl)benzimidazol-1-yl]-3-pyridyl]ethanol]
462 | 2.3 | 1.8 | Cc1ccc(Nc2cc3ncn(-c4ccc(C(C)O)c(-n5nc(C(F)F)cc5C(F)F)n4)c3cc2F)nn1 (stereo not drawn) [Example 387, 1-[2-[3,5-bis(difluoromethyl)pyrazol-1-yl]-6-[6-fluoro-5-[(6-methylpyridazin-3-yl)amino]benzimidazol-1-yl]-3-pyridyl]ethanol]
54 | 0.6 | 0.5 | Cc1ccc(Nc2ccc3c(c2)ncn3-c2ccc(C(C)O)c(-n3nc(OC(F)F)cc3C)n2)nn1 (stereo not drawn) [Example 290, 1-[2-[3-(difluoromethoxy)-5-methyl-pyrazol-1-yl]-6-[5-[(6-methylpyridazin-3-yl)amino]benzimidazol-1-yl]-3-pyridyl]ethanol]
1520 | 36 | 10.1 | Cc1ccc(Nc2ccc3c(c2)ncn3-c2ccc(C(C)O)c(C(=O)NCC(F)(F)F)n2)nn1 (stereo not drawn) [Example 124, 3-(1-Hydroxyethyl)-6-[5-[(6-methylpyridazin-3-yl)amino]benzimidazol-1-yl]-N-(2,2,2-trifluoroethyl)pyridine-2-carboxamide; formic acid]
10 | 2 | 4.5 | Cc1cc(C#N)nn1-c1nc(-n2cnc3cc(-c4cnc(N5CCCC5=O)o4)ccc32)ccc1C(C)O (stereo not drawn) [Example 392, 1-[3-(1-hydroxyethyl)-6-[5-[2-(2-oxopyrrolidin-1-yl)oxazol-5-yl]benzimidazol-1-yl]-2-pyridyl]-5-methyl-pyrazole-3-carbonitrile]
15 | 4.9 | 22.4 | COc1cc2ncn(-c3ccc([C@H](C)O)c(-c4cccc(C#N)c4)n3)c2cc1OC [Example 37, (S)-3-(6-(5,6-Dimethoxy-1H-benzo[d]imidazol-1-yl)-3-(l-hydroxyethyl)pyridin-2-yl)benzonitrile]
93 | 1.1 | 0.5 | Cc1cc(C#N)nn1-c1nc(-n2cnc3cc(Nc4nncc5c4OCCN5C)ccc32)ccc1C(C)O (stereo not drawn) [Example 310, 1-[3-(1-hydroxyethyl)-6-[5-[(4-methyl-2,3-dihydropyridazino[4,5-b][1,4]oxazin-8-yl)amino]benzimidazol-1-yl]-2-pyridyl]-5-methyl-pyrazole-3-carbonitrile]
4860 | 65.3 | 9.5 | Cc1ccc(Nc2ccc3c(c2)ncn3-c2ccc(C(C)O)c(N3CCOC(C(F)(F)F)C3)n2)nn1 (stereo not drawn) [Example 320, 1-[6-[5-[(6-methylpyridazin-3-yl)amino]benzimidazol-1-yl]-2-[2-(trifluoromethyl)morpholin-4-yl]-3-pyridyl]ethanol]
981 | 863 | 895 | Cc1ccc(Nc2ccc3ncn(-c4ccc(C(C)O)c(N5CC[C@@H]6NCC[C@H]65)n4)c3c2)nn1 (stereo partly drawn) [Example 125, 1-[6-[6-[(6-Methylpyridazin-3-yl)amino]benzimidazol-1-yl]-2-[(3aR,6aS)-2,3,3a,5,6,6a-hexahydro-1H-pyrrolo[3,2-b]pyrrol-4-yl]-3-pyridyl]ethanol; formic acid]
9 | 0.3 | 0.7 | Cc1ccc(Nc2ccc3c(c2)ncn3-c2ccc(C(C)O)c(-n3nc(C(F)(F)F)c4c3CCN(C)C4)n2)nn1 (stereo not drawn) [Example 171, 1-[6-[5-[(6-Methylpyridazin-3-yl)amino]benzimidazol-1-yl]-2-[5-methyl-3-(trifluoromethyl)-6,7-dihydro-4H-pyrazolo[4,3-c]pyridin-1-yl]-3-pyridyl]ethanol; formic acid]
19 | 1 | 1.7 | Cc1ccc(Nc2cc3ncn(-c4ccc(C(C)O)c(-n5nc(OC(F)F)cc5C)n4)c3cc2OC2COC2)nn1 (stereo not drawn) [Example 357, 1-[2-[3-(difluoromethoxy)-5-methyl-pyrazol-1-yl]-6-[5-[(6-methylpyridazin-3-yl)amino]-6-(oxetan-3-yloxy)benzimidazol-1-yl]-3-pyridyl]ethanol]
145 | 84.7 | 433 | Cc1cc(C(F)F)nn1-c1nc(-n2cnc3cc(F)c(Nc4ccc(Cl)nn4)cc32)ccc1C(C)O (stereo not drawn) [Example 371, 1-[6-[6-[(6-chloropyridazin-3-yl)amino]-5-fluoro-benzimidazol-1-yl]-2-[3-(difluoromethyl)-5-methyl-pyrazol-1-yl]-3-pyridyl]ethanol]
35 | 28.8 | 17.5 | Cc1nnc(Nc2ccc3c(c2)ncn3-c2ccc(C(C)O)c(-n3nc(C#N)cc3C)n2)o1 (stereo not drawn) [Example 103, 1-[3-(1-Hydroxyethyl)-6-[5-[(5-methyl-1,3,4-oxadiazol-2-yl)amino]benzimidazol-1-yl]-2-pyridyl]-5-methyl-pyrazole-3-carbonitrile]
7 | 0.4 | 0.8 | Cc1ccc(Nc2cc3ncn(-c4ccc(C(C)O)c(-n5nc(C#N)cc5C)n4)c3cc2OC2COC2)nn1 (stereo not drawn) [Example 282, 1-[3-(1-hydroxyethyl)-6-[5-[(6-methylpyridazin-3-yl)amino]-6-(oxetan-3-yloxy)benzimidazol-1-yl]-2-pyridyl]-5-methyl-pyrazole-3-carbonitrile]
497 | 11.6 | 6.4 | COc1cc(-c2nc(-n3cnc4cc(Nc5ccc(C)nn5)ccc43)ccc2C(C)O)c(C)cn1 (stereo not drawn) [Example 285, 1-[2-(2-methoxy-5-methyl-4-pyridyl)-6-[5-[(6-methylpyridazin-3-yl)amino]benzimidazol-1-yl]-3-pyridyl]ethanol]
> 30000 | 3300 | 963 | Cc1ccc(Nc2ccc3c(c2)ncn3-c2ccc(C(C)O)c(-c3cnc(O)cc3C(F)(F)F)n2)nn1 (stereo not drawn) [Example 164, 5-[3-(1-Hydroxyethyl)-6-[5-[(6-methylpyridazin-3-yl)amino]benzimidazol-1-yl]-2-pyridyl]-4-(trifluoromethyl)pyridin-2-ol]
70 | 2 | 5.6 | COCCOc1cc2c(cc1Nc1ccc(C)nn1)ncn2-c1ccc(C(C)O)c(-n2nc(C#N)cc2C)n1 (stereo not drawn) [Example 187, 1-[3-(1-Hydroxyethyl)-6-[6-(2-methoxyethoxy)-5-[(6-methylpyridazin-3-yl)amino]benzimidazol-1-yl]-2-pyridyl]-5-methyl-pyrazole-3-carbonitrile]
208 | 1.6 | 0.7 | Cc1ccc(Nc2ccc3c(c2)ncn3-c2ccc(C(C)O)c(-n3nc(C#N)cc3C(F)F)n2)nn1 (stereo not drawn) [Example 306, 5-(difluoromethyl)-1-[3-(1-hydroxyethyl)-6-[5-[(6-methylpyridazin-3-yl)amino]benzimidazol-1-yl]-2-pyridyl]pyrazole-3-carbonitrile]
432 | 5.3 | 6.6 | Cc1ccc(Nc2ccc3c(c2)ncn3-c2ccc(C(C)O)c(-c3nn(CC(F)(F)F)cc3C)n2)nn1 (stereo not drawn) [Example 349, 1-[6-[5-[(6-methylpyridazin-3-yl)amino]benzimidazol-1-yl]-2-[4-methyl-1-(2,2,2-trifluoroethyl)pyrazol-3-yl]-3-pyridyl]ethanol]
14 | 9.6 | 42 | Cc1nnc(Nc2cc3c(cc2F)ncn3-c2ccc(C(C)O)c(-n3nc(C#N)cc3C)n2)o1 (stereo not drawn) [Example 376, 1-[6-[5-fluoro-6-[(5-methyl-1,3,4-oxadiazol-2-yl)amino]benzimidazol-1-yl]-3-(1-hydroxyethyl)-2-pyridyl]-5-methyl-pyrazole-3-carbonitrile]
1120 | 13.5 | 5.6 | Cc1ccc(Nc2ccc3c(c2)ncn3-c2ccc(C(C)O)c(-c3cc(OC(F)F)nnc3C)n2)nn1 (stereo not drawn) [Example 396, 1-[2-[6-(difluoromethoxy)-3-methyl-pyridazin-4-yl]-6-[5-[(6-methylpyridazin-3-yl)amino]benzimidazol-1-yl]-3-pyridyl]ethanol]
84 | 50.8 | 382 | Cc1cc(C#N)nn1-c1nc(-n2cnc3cc(Br)c(N4CCN(C5COC5)CC4)cc32)ccc1C(C)O (stereo not drawn) [Example 190, 1-[6-[5-Bromo-6-[4-(oxetan-3-yl)piperazino]benzimidazol-1-yl]-3-(1-hydroxyethyl)-2-pyridyl]-5-methyl-pyrazole-3-carbonitrile]
3390 | 35.4 | 9.3 | Cc1ccc(Oc2ccc3c(c2)ncn3-c2ccc(C(C)O)c(-c3cn(CC(F)(F)F)nc3C)n2)nn1 (stereo not drawn) [Example 351, 1-[6-[5-(6-methylpyridazin-3-yl)oxybenzimidazol-1-yl]-2-[3-methyl-1-(2,2,2-trifluoroethyl)pyrazol-4-yl]-3-pyridyl]ethanol]
40 | 0.9 | 1.2 | Cc1ccc(Nc2ccc3c(c2)ncn3-c2ccc(C(C)O)c(-c3cc(OC(F)F)ncc3C)n2)nn1 (stereo not drawn) [Example 167, 1-[2-[2-(Difluoromethoxy)-5-methyl-4-pyridyl]-6-[5-[(6-methylpyridazin-3-yl)amino]benzimidazol-1-yl]-3-pyridyl]ethanol]
